According to patent publication US9708286B2, “Ingenol-3-acylates III and ingenol-3-carbamates” (LEO Laboratories Limited, priority 2010, dated 2017):

Key:
Type in all cases: cell-based
[1] = tested on: Primary human epidermal keratinocytes, HeKa; experiment: HeKa cytokine release (IL-8); conditions: Homo sapiens, HEKa, 6 h, read-out: HeKa cytokine release (IL-8) Rel EC50 range
Protocol: Primary human epidermal keratinocytes, HeKa, were seeded (10.000 cells/well) in 96-well plates the day before the assay. Test compounds were diluted in DMSO (dimethyl sulfoxide) and further diluted in assay medium and pipetted into wells of 96 well-plates containing HeKa cells. The plates were incubated for 6 h at 37° C. in humidified air with 5% CO2. Plates were centrifuged briefly to spin down cells at 4° C., the supernatant was removed and analysed by Meso Scale Discovery (MSD) 4-spot cytokine assay (Pro-inflammatory II Ultra Sensitive kit, MSD, MD, USA). The MSD assay employs a sandwich immunoassay format where capture antibodies are coated in a patterned array on the bottom of the wells of a 4-Spot-Multi-MSD plate. Standard samples were incubated in the MULTI-SPOT plates as well, and the cytokine (IL-8) binds to its corresponding capture antibody spot. The cytokine level was quantitated on a SECTOR™ Imager using a cytokine-specific Detection Antibody labelled with MSD SULFO-TAG™ reagent.
(§1) Test compound titration curves were fitted to a four-parameter sigmoidal curve after normalizing the effect of the test compound to the effect of the positive control (1.5×10^−7 M PEP0005). Rel EC50 denotes the concentration of test compound producing an effect that is midway between the fitted top and bottom.

[2] = tested on: PMN's (polymorphonuclear leukocytes); experiment: Neutrophil oxidative burst; conditions: Leukocyte, 40 min, read-out: Neutrophil oxidative burst Rel EC50 range, PMN from buffy coats, 40 min at RT, hydroethidine fluorescence; normalized to 5×10^−7 M PEP0005
Protocol: PMN's (polymorphonuclear leukocytes) were isolated and purified from fresh buffy coats by sequential sedimentation, density centrifugation and lysis of contaminating erythrocytes. Buffy coats were incubated with 2% methocel for 30-45 min to differentially sediment red blood cells. The leukocyte-rich supernatant was transferred to lymphoprep tubes to remove mononuclear cells by density centrifugation (400×g, 30 min). The pellet was resuspended and any remaining erythrocytes lysed using 0.2% NaCl for 30 sec before restoring isotonicity by the addition of 1.2% NaCl. This step was repeated until the cell pellet appears relatively free of red blood cells. Cells were resuspended in DPBS (Dulbecco's Phosphate Buffered Saline) (w.o. Ca^2+, Mg^2+) and the concentration adjusted to 1.4×10^6 cells/ml in HBSS (Hanks Balanced Salt solution) (w Ca^2+, Mg^2±) containing 0.1% BSA (Bovine Serum Albumin) and 5 mM glucose just prior to assay initiation. Titrated reference and test compounds were pre-mixed with HE (Hydroethidine) (10 μM final assay concentration) before addition to 96-well plates containing 2.5×10^5 cells. Following 40 min incubation at RT, changes in the respiratory burst was estimated by measuring fluorescence at 579 nm (excitation: 485 nm) using an Envision plate reader.
as §1, with “(5×10^−7” for “(1.5×10^−7”, “bottom. Abs EC50 is the concentration of test compound that provokes a response corresponding to 50% of the maximal effect associated with the positive control (5×10^−7 M PEP0005).” for “bottom.”

HeLa cells = experiment: Necrosis assay; conditions: Homo sapiens, HeLa, 0.5 h, read-out: HeLa necrosis EC50 range
Protocol: HeLa cells (ATCC CCL-002) were grown in minimal essential medium (Invitrogen catalog no. 42360) containing 10% fetal bovine serum, 100 IU/ml penicillin and 100 μg/ml streptomycin. 4,000-6,000 cells were seeded into 96-well black ViewPlates-plates, clear bottom, (Perkin Elmer) in 100 μl medium and incubated overnight. Compounds were dissolved and pre-diluted in DMSO in 96-well polypropylene plates (Greiner) in a concentration range of 15 μM to 600 μM. At the time of the experiment cell plates were placed on heating blocks at 37° C., medium was removed and 40 μl fresh, pre-warmed medium was added per well. Cells were incubated for 15 min before addition of compounds. In parallel, 3 μl of compounds were diluted with 197 μl growth medium on a Tecan freedom-EVO pipetting station using 250 μl/s pipetting speed, in order to ensure effective mixing of the highly concentrated compound solutions with the aqueous phase. These pre-dilution plates were then equilibrated on heating blocks at 37° C. for 10 min. 80 μl pre-diluted compound were transferred manually to the corresponding wells containing HeLa cells yielding compound concentrations of 10 μM to 400 μM. Control conditions were 1% DMSO in growth medium (100% viability) and 400 μM ingenol mebutate in growth medium (0% viability). Plates were incubated on the heating blocks at 37° C. for 30 min. At the end of the incubation 10 μl PrestoBlue reagent (Invitrogen) were added to each well, plates were sealed with black seal, followed by incubation at 37° C. for 10 min with gentle shaking (150 rpm). Subsequently, plates were placed at room temperature for 20-30 min. Plates were read immediately after on an Envision Fluorescence reader (Perkin Elmer) with excitation at 535 nm and emission at 630 nm. Test compound titration curves were fitted to a four-parameter sigmoidal curve after normalizing the effect of the test compound to the effect of the positive control (4 10^−4 M PEP0005/ingenol mebutate). AbsEC50 denotes the concentration of test compound producing 50% effect.

Row | SMILES | EC50 [1] | EC50 [2] | EC50 (HeLa cells)
1 | CC1=C[C@]23C(=O)[C@@H](C=C(CO)[C@@H](O)[C@]2(O)[C@H]1OC(=O)N1CCCCCC1)[C@H]1[C@@H](C[C@H]3C)C1(C)C [Compound 728, Ingenol 3-(azepane-1-carboxylate)] | 20 to 100 nM | 20 to 100 nM | –
2 | CC1=C[C@]23C(=O)[C@@H](C=C(CO)[C@@H](O)[C@]2(O)[C@H]1OC(=O)Nc1ccccc1)[C@H]1[C@@H](C[C@H]3C)C1(C)C [Compound 711, Ingenol 3-(N-phenyl-carbamate)] | < 20 nM | 20 to 100 nM | –
3 | CC1=C[C@]23C(=O)[C@@H](C=C(CO)[C@@H](O)[C@]2(O)[C@H]1OC(=O)NC1CCc2ccccc21)[C@H]1[C@@H](C[C@H]3C)C1(C)C (stereo partly shown) [Compound 712, Ingenol 3-(N-(indan-1-yl)-carbamate)] | 20 to 100 nM | 20 to 100 nM | –
4 | CC1=C[C@]23C(=O)[C@@H](C=C(CO)[C@@H](O)[C@]2(O)[C@H]1OC(=O)N(C)C)[C@H]1[C@@H](C[C@H]3C)C1(C)C [Compound 702, Ingenol 3-(N,N-dimethyl-carbamate)] | > 100 nM | 20 to 100 nM | –
5 | CC1=C[C@]23C(=O)[C@@H](C=C(CO)[C@@H](O)[C@]2(O)[C@H]1OC(=O)N1CCCC1C(F)(F)F)[C@H]1[C@@H](C[C@H]3C)C1(C)C (single isomer, unassigned; isomer a) [Compound 740, Ingenol 3-(2-trifluoromethyl-pyrrolidine-1-carboxylate) (ISOMER A)] | 20 to 100 nM | < 20 nM | –
6 | CC1=C[C@]23C(=O)[C@@H](C=C(CO)[C@@H](O)[C@]2(O)[C@H]1OC(=O)N1CCCCC1)[C@H]1[C@@H](C[C@H]3C)C1(C)C [Compound 707, Ingenol 3-(piperidine-1-carboxylate)] | 20 to 100 nM | < 20 nM | –
7 | CC1=C[C@]23C(=O)[C@@H](C=C(CO)[C@@H](O)[C@]2(O)[C@H]1OC(=O)N1CCOCC1)[C@H]1[C@@H](C[C@H]3C)C1(C)C [Compound 703, Ingenol 3-(morpholine-4-carboxylate)] | > 100 nM | 20 to 100 nM | –
8 | CC1=C[C@]23C(=O)[C@@H](C=C(CO)[C@@H](O)[C@]2(O)[C@H]1OC(=O)N1CCC(=O)c2ccccc21)[C@H]1[C@@H](C[C@H]3C)C1(C)C [Compound 725, Ingenol 3-(4-oxo-2,3-dihydroquinoline-1-carboxylate)] | – | < 20 nM | 150000 to 350000 nM
9 | CC1=C[C@]23C(=O)[C@@H](C=C(CO)[C@@H](O)[C@]2(O)[C@H]1OC(=O)c1c(C)cc(=O)oc1C)[C@H]1[C@@H](C[C@H]3C)C1(C)C [Compound 573, Ingenol 3-(2,4-dimethyl-6-oxo-pyran-3-carboxylate)] | 20 to 100 nM | 20 to 100 nM | –
10 | COc1ccccc1N(C)C(=O)O[C@H]1C(C)=C[C@]23C(=O)[C@@H](C=C(CO)[C@@H](O)[C@]12O)[C@H]1[C@@H](C[C@H]3C)C1(C)C [Compound 731, Ingenol 3-(N-methyl-N-(2-methoxy-phenyl)-carbamate)] | – | 20 to 100 nM | 150000 to 350000 nM
11 | CC1=C[C@]23C(=O)[C@@H](C=C(CO)[C@@H](O)[C@]2(O)[C@H]1OC(=O)c1cncn1-c1ccccc1)[C@H]1[C@@H](C[C@H]3C)C1(C)C [Compound 515, Ingenol 3-(3-phenylimidazole-4-carboxylate)] | – | < 20 nM | < 150000 nM
12 | CC1=C[C@]23C(=O)[C@@H](C=C(CO)[C@@H](O)[C@]2(O)[C@H]1OC(=O)N(C)C1CCC1)[C@H]1[C@@H](C[C@H]3C)C1(C)C [Compound 749, Ingenol 3-(N-cyclobutyl-N-methyl-carbamate)] | – | < 20 nM | > 350000 nM
13 | CC1=C[C@]23C(=O)[C@@H](C=C(CO)[C@@H](O)[C@]2(O)[C@H]1OC(=O)N(C)C(C)CC#N)[C@H]1[C@@H](C[C@H]3C)C1(C)C (stereo partly shown) [Compound 715, Ingenol 3-(N-(2-cyano-1-methyl-ethyl)-N-methyl-carbamate)] | – | > 100 nM | > 350000 nM
14 | CC1=C[C@]23C(=O)[C@@H](C=C(CO)[C@@H](O)[C@]2(O)[C@H]1OC(=O)c1c(C(C)(C)C)noc1C)[C@H]1[C@@H](C[C@H]3C)C1(C)C [Compound 549, Ingenol 3-(5-methyl-3-tert-butyl-isoxazole-4-carboxylate)] | < 20 nM | < 20 nM | –
15 | CC1=C[C@]23C(=O)[C@@H](C=C(CO)[C@@H](O)[C@]2(O)[C@H]1OC(=O)c1c(C)nn(CC2CCOCC2)c1C)[C@H]1[C@@H](C[C@H]3C)C1(C)C [Compound 561, Ingenol 3-(3,5-dimethyl-1-(tetrahydropyran-4-ylmethyl)pyrazole-4-carboxylate)] | – | 20 to 100 nM | 150000 to 350000 nM
16 | CC1=C[C@]23C(=O)[C@@H](C=C(CO)[C@@H](O)[C@]2(O)[C@H]1OC(=O)N(C)C1CCN(C(=O)OC(C)(C)C)CC1)[C@H]1[C@@H](C[C@H]3C)C1(C)C [Compound 742, Ingenol 3-(N-methyl-N—(N-(tert-butyloxycarbonyl)-4-piperidyl)-carbamate)] | – | 20 to 100 nM | 150000 to 350000 nM
17 | CC1=C[C@]23C(=O)[C@@H](C=C(CO)[C@@H](O)[C@]2(O)[C@H]1OC(=O)c1c(C)nc2ccccn12)[C@H]1[C@@H](C[C@H]3C)C1(C)C [Compound 535, Ingenol 3-(2-methylimidazo[1,2-a]pyridine-3-carboxylate)] | – | < 20 nM | 150000 to 350000 nM
18 | CCn1c(C)cc(C)c1C(=O)O[C@H]1C(C)=C[C@]23C(=O)[C@@H](C=C(CO)[C@@H](O)[C@]12O)[C@H]1[C@@H](C[C@H]3C)C1(C)C [Compound 543, Ingenol 3-(1-ethyl-3,5-dimethylpyrrole-2-carboxylate)] | – | < 20 nM | < 150000 nM
19 | CC1=C[C@]23C(=O)[C@@H](C=C(CO)[C@@H](O)[C@]2(O)[C@H]1OC(=O)N(C)c1cc(C)nn1C)[C@H]1[C@@H](C[C@H]3C)C1(C)C [Compound 719, Ingenol 3-(N-(2,5-dimethylpyrazol-3-yl)-N-methyl-carbamate)] | – | > 100 nM | > 350000 nM
20 | C=CCN(C)C(=O)O[C@H]1C(C)=C[C@]23C(=O)[C@@H](C=C(CO)[C@@H](O)[C@]12O)[C@H]1[C@@H](C[C@H]3C)C1(C)C [Compound 750, Ingenol 3-(N-allyl-N-methyl-carbamate)] | – | < 20 nM | > 350000 nM
